Test system: DU145 human prostate carcinoma cells
Assay: In vivo antitumor efficacy, DU145 human prostate carcinoma xenograft in athymic mice
Parameters: species or system Balb Nu/Nu athymic mice
Settings: for Toxicity: evaluated on the basis of body weight reduction, animals per group of 8, bevacizumab 20 mg/kg i.p., brostallicin 0.2 mg/kg i.v.; for Time to reach 1 g / T-C (days), delay for treated vs control tumors to reach 1 g: s.c. DU145 tumors in athymic mice, bevacizumab 20 mg/kg i.p. days 6,10,13,17,20,24; for Time to reach 1 g: treatment from day 6, brostallicin 0.2 mg/kg i.v. days 6,13,20 (q7d x 3); for T-C (days), delay for treated vs control tumors to reach 1 g: brostallicin 0.2 mg/kg i.v. days 6,13,20
Experimental: Balb Nu/Nu, male mice, (athymic mice) from Harlan, Italy, were maintained in cages with paper filter covers, food and bedding sterilized and water acidified. 2.5×10^6 DU145 human prostate carcinoma cells (from American Type Culture Collection) were injected subcutaneously in athymic mice. […] The treatments started 6 days later when the tumors were palpable. All drugs were prepared immediately before use. Brostallicin treatments were administered intravenously in a volume of 10 ml/kg at a dose of 0.2 mg/kg and treatments were repeated weekly for 3 weeks. Bevacizumab was administered intraperitoneally in a volume of 10 ml/kg at a dose of 20 mg/kg on the days 6, 10, 13, 17, 20 and 24 from the day of cell injection. When both compounds were administered on the same day, bevacizumab was administered intraperitoneally immediately before brostallicin intravenous injection. Every 3 days the tumor growth and the net body weight were evaluated. Tumor growth was assessed by caliper. The two diameters were recorded, and the tumor weight was calculated according to the following formula: length (mm)×width^2 (mm)/2. The effect of the antitumor treatment was determined as the delay in the onset of an exponential growth of tumors [see for reference, Anti Cancer Drugs 7: 437-60, 1996]. This delay (T-C value) was defined as the difference of the time (in days) required for the treatment group (T) and the control group (C) tumors to reach a predetermined size (e.g. 1 g). Toxicity was evaluated on the basis of the body weight reduction.

| Compound | Toxicity | Time to reach 1 g [days] | T-C (days), delay for treated vs control tumors to reach 1 g [days] |
| --- | --- | --- | --- |
| Bevacizumab: monoclonal antibody directed against the vascular endothelial growth factor (VEGF), a potent neo-vascularisation inhibitor | 0/8 | 23.4 ± 4.6 | 9.6 |
| C=C(Br)C(=O)Nc1cc(C(=O)Nc2cc(C(=O)Nc3cc(C(=O)Nc4cc(C(=O)NCCNC(=N)N)n(C)c4)n(C)c3)n(C)c2)n(C)c1.Cl [Brostallicin, N-(5-{[(5-{[(5-{[(2-{[amino(imino)methyl]amino}ethyl)amino]carbonyl}-1-methyl-1H-pyrrol-3-yl)amino]carbonyl}-1-methyl-1H-pyrrol-3-yl)amino]carbonyl}-1-methyl-1H-pyrrol-3-yl)-4-[(2-bromoacryloyl)amino]-1-methyl-1H-pyrrole-2-carboxamide hydrochloride] | 0/8 | 18.4 ± 5.6 | 4.6 |
